Results as given in PubChem BioAssay AID2060896 (Molecular Pharmacology Branch, DTP, NCI, 2025).

Test system: 941728-121-R-J1-PDC complex spheroid viability
Test: Anticancer human tumor 941728-121-R-J1-PDC patient-derived lung adenocarcinoma cell line growth inhibition [RAS]
Conditions: for IC50: curve of first compound; for viability, T/C: stronger effect = lower value
Summary of the method: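 Multi-cell-type spheroids: tumor cells plus HUVEC endothelial cells and mesenchymal stem cells. RAS-pathway inhibitors were combined with targeted agents, each dosed in half-log steps down from clinical Cmax, or from 10 microM when Cmax was unknown.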

[1] = second compound 0.000949 µM, first compound 0.000949 µM
[2] = second compound 0.000949 µM, first compound 0.003 µM
[3] = second compound 0.000949 µM, first compound 0.00949 µM
[4] = second compound 0.000949 µM, first compound 0.03 µM
[5] = second compound 0.000949 µM, first compound 0.0949 µM
[6] = second compound 0.000949 µM, first compound 0.3 µM
[7] = second compound 0.003 µM, first compound 0.000949 µM
[8] = second compound 0.003 µM, first compound 0.003 µM
[9] = second compound 0.003 µM, first compound 0.00949 µM
[10] = second compound 0.003 µM, first compound 0.03 µM
[11] = second compound 0.003 µM, first compound 0.0949 µM
[12] = second compound 0.003 µM, first compound 0.3 µM
[13] = second compound 0.00949 µM, first compound 0.000949 µM
[14] = second compound 0.00949 µM, first compound 0.003 µM
[15] = second compound 0.00949 µM, first compound 0.00949 µM
[16] = second compound 0.00949 µM, first compound 0.03 µM
[17] = second compound 0.00949 µM, first compound 0.0949 µM
[18] = second compound 0.00949 µM, first compound 0.3 µM
[19] = second compound 0.03 µM, first compound 0.000949 µM
[20] = second compound 0.03 µM, first compound 0.003 µM
[21] = second compound 0.03 µM, first compound 0.00949 µM
[22] = second compound 0.03 µM, first compound 0.03 µM
[23] = second compound 0.03 µM, first compound 0.0949 µM
[24] = second compound 0.03 µM, first compound 0.3 µM
[25] = second compound 0.0949 µM, first compound 0.000949 µM
[26] = second compound 0.0949 µM, first compound 0.003 µM
[27] = second compound 0.0949 µM, first compound 0.00949 µM
[28] = second compound 0.0949 µM, first compound 0.03 µM
[29] = second compound 0.0949 µM, first compound 0.0949 µM
[30] = second compound 0.0949 µM, first compound 0.3 µM
[31] = second compound 0.3 µM, first compound 0.000949 µM
[32] = second compound 0.3 µM, first compound 0.003 µM
[33] = second compound 0.3 µM, first compound 0.00949 µM
[34] = second compound 0.3 µM, first compound 0.03 µM
[35] = second compound 0.3 µM, first compound 0.0949 µM
[36] = second compound 0.3 µM, first compound 0.3 µM
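Further: spheroids exposed to compounds for 7 days before readout.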
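Wherever viability, T/C is given: 100% = DMSO vehicle control viability.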

Molecule `C=CC(=O)N1CCN(c2nc(OCC3CCCN3C)nc3c(F)c(-c4nc(N)cc(C)c4C(F)(F)F)c(Cl)cc23)C(C)C1` (stereo unspecified) + CCn1c(-c2cc(N3CCN(C)CC3)cnc2C(C)OC)c2c3cc(ccc31)-c1csc(n1)CC(NC(=O)C1CC1C)C(=O)N1CCCC(N1)C(=O)OCC(C)(C)C2 has an IC50 (second compound 0.000949 µM) of less than 3.16 nM, an IC50 (second compound 0.003 µM) of less than 3.16 nM and an IC50 (second compound 0.00949 µM) of less than 3.16 nM. For the same molecule, the IC50 (second compound 0.03 µM) was less than 3.16 nM, the IC50 (second compound 0.0949 µM) was less than 3.16 nM and the IC50 (second compound 0.3 µM) was less than 3.16 nM. It also gave a viability, T/C (second compound 0.000949 µM, first compound 0.00316 µM) of 20.1%, a viability, T/C (second compound 0.000949 µM, first compound 0.01 µM) of 19.7% and a viability, T/C (second compound 0.000949 µM, first compound 0.0316 µM) of 14.8%. The viability, T/C (second compound 0.000949 µM, first compound 0.1 µM) was 18.7%, the viability, T/C (second compound 0.000949 µM, first compound 0.316 µM) was 20.2% and the viability, T/C (second compound 0.000949 µM, first compound 1 µM) was 16.2%. It also gave a viability, T/C (second compound 0.003 µM, first compound 0.00316 µM) of 16.9%, a viability, T/C (second compound 0.003 µM, first compound 0.01 µM) of 15.7% and a viability, T/C (second compound 0.003 µM, first compound 0.0316 µM) of 14.5%. It also gave a viability, T/C (second compound 0.003 µM, first compound 0.1 µM) of 17.2%, a viability, T/C (second compound 0.003 µM, first compound 0.316 µM) of 19.6% and a viability, T/C (second compound 0.003 µM, first compound 1 µM) of 14.6%. The viability, T/C (second compound 0.00949 µM, first compound 0.00316 µM) was 17.3%, the viability, T/C (second compound 0.00949 µM, first compound 0.01 µM) was 16.4% and the viability, T/C (second compound 0.00949 µM, first compound 0.0316 µM) was 17.7%. It also gave a viability, T/C (second compound 0.00949 µM, first compound 0.1 µM) of 18%, a viability, T/C (second compound 0.00949 µM, first compound 0.316 µM) of 15.6% and a viability, T/C (second compound 0.00949 µM, first compound 1 µM) of 14.8%. For the same molecule, the viability, T/C (second compound 0.03 µM, first compound 0.00316 µM) was 17.7%, the viability, T/C (second compound 0.03 µM, first compound 0.01 µM) was 18.3% and the viability, T/C (second compound 0.03 µM, first compound 0.0316 µM) was 17.5%. The viability, T/C (second compound 0.03 µM, first compound 0.1 µM) was 16.3%, the viability, T/C (second compound 0.03 µM, first compound 0.316 µM) was 14% and the viability, T/C (second compound 0.03 µM, first compound 1 µM) was 17.8%. For the same molecule, the viability, T/C (second compound 0.0949 µM, first compound 0.00316 µM) was 15.6%, the viability, T/C (second compound 0.0949 µM, first compound 0.01 µM) was 16.7% and the viability, T/C (second compound 0.0949 µM, first compound 0.0316 µM) was 16.5%. The viability, T/C (second compound 0.0949 µM, first compound 0.1 µM) was 17.7%, the viability, T/C (second compound 0.0949 µM, first compound 0.316 µM) was 14.9% and the viability, T/C (second compound 0.0949 µM, first compound 1 µM) was 19.4%. For the same molecule, the viability, T/C (second compound 0.3 µM, first compound 0.00316 µM) was 17%, the viability, T/C (second compound 0.3 µM, first compound 0.01 µM) was 17.2% and the viability, T/C (second compound 0.3 µM, first compound 0.0316 µM) was 17.1%. For the same molecule, the viability, T/C (second compound 0.3 µM, first compound 0.1 µM) was 14.5%, the viability, T/C (second compound 0.3 µM, first compound 0.316 µM) was 18.5% and the viability, T/C (second compound 0.3 µM, first compound 1 µM) was 18.2%.

Molecule `CC1(C)CCC(Nc2ncc(C(F)(F)F)c(-c3c[nH]c4c(P(C)(C)=O)c(C#N)ccc34)n2)CN1` (stereo unspecified) + CCn1c(-c2cc(N3CCN(C)CC3)cnc2C(C)OC)c2c3cc(ccc31)-c1csc(n1)CC(NC(=O)C1CC1C)C(=O)N1CCCC(N1)C(=O)OCC(C)(C)C2 has an IC50 (second compound 0.000949 µM) of less than 0.949 nM, an IC50 (second compound 0.003 µM) of less than 0.949 nM and an IC50 (second compound 0.00949 µM) of less than 0.949 nM. The IC50 (second compound 0.03 µM) was less than 0.949 nM, the IC50 (second compound 0.0949 µM) was less than 0.949 nM and the IC50 (second compound 0.3 µM) was less than 0.949 nM. For the same molecule, the viability, T/C [1] was 26.8%, the viability, T/C [2] was 28.2% and the viability, T/C [3] was 23.5%. It also gave a viability, T/C [4] of 27.3%, a viability, T/C [5] of 32.7% and a viability, T/C [6] of 24.8%. The viability, T/C [7] was 19.8%, the viability, T/C [8] was 18.5% and the viability, T/C [9] was 16.6%. It also gave a viability, T/C [10] of 22.6%, a viability, T/C [11] of 19.5% and a viability, T/C [12] of 17.1%. For the same molecule, the viability, T/C [13] was 14%, the viability, T/C [14] was 10.3% and the viability, T/C [15] was 11.3%. The viability, T/C [16] was 14.4%, the viability, T/C [17] was 12.3% and the viability, T/C [18] was 12.2%. The viability, T/C [19] was 10.8%, the viability, T/C [20] was 9.52% and the viability, T/C [21] was 9.8%. The viability, T/C [22] was 10.9%, the viability, T/C [23] was 9.73% and the viability, T/C [24] was 11.7%. It also gave a viability, T/C [25] of 9.88%, a viability, T/C [26] of 9.37% and a viability, T/C [27] of 10%. For the same molecule, the viability, T/C [28] was 11.1%, the viability, T/C [29] was 8.77% and the viability, T/C [30] was 11.9%. It also gave a viability, T/C [31] of 9.86%, a viability, T/C [32] of 9.92% and a viability, T/C [33] of 9.46%. The viability, T/C [34] was 8.06%, the viability, T/C [35] was 9.53% and the viability, T/C [36] was 10.4%.

`CCc1c2c(nc3ccc(O)cc13)-c1cc3c(c(=O)n1C2)COC(=O)[C@]3(O)CC` + CCn1c(-c2cc(N3CCN(C)CC3)cnc2C(C)OC)c2c3cc(ccc31)-c1csc(n1)CC(NC(=O)C1CC1C)C(=O)N1CCCC(N1)C(=O)OCC(C)(C)C2 showed an IC50 (second compound 0.000949 µM) of less than 0.949 nM, an IC50 (second compound 0.003 µM) of less than 0.949 nM and an IC50 (second compound 0.00949 µM) of less than 0.949 nM. The IC50 (second compound 0.03 µM) was less than 0.949 nM, the IC50 (second compound 0.0949 µM) was less than 0.949 nM and the IC50 (second compound 0.3 µM) was less than 0.949 nM. For the same molecule, the viability, T/C [1] was 24.6%, the viability, T/C [2] was 24.4% and the viability, T/C [3] was 19.9%. It also gave a viability, T/C [4] of 20.5%, a viability, T/C [5] of 18.1% and a viability, T/C [6] of 9.95%. It also gave a viability, T/C [7] of 25.8%, a viability, T/C [8] of 16.7% and a viability, T/C [9] of 12.8%. For the same molecule, the viability, T/C [10] was 13.4%, the viability, T/C [11] was 10.3% and the viability, T/C [12] was 5.76%. For the same molecule, the viability, T/C [13] was 17.3%, the viability, T/C [14] was 10.6% and the viability, T/C [15] was 13.3%. For the same molecule, the viability, T/C [16] was 10.5%, the viability, T/C [17] was 7.7% and the viability, T/C [18] was 4.19%. The viability, T/C [19] was 13.7%, the viability, T/C [20] was 14.1% and the viability, T/C [21] was 9.58%. The viability, T/C [22] was 8.62%, the viability, T/C [23] was 5.46% and the viability, T/C [24] was 4.56%. It also gave a viability, T/C [25] of 12.9%, a viability, T/C [26] of 11.2% and a viability, T/C [27] of 10.6%. It also gave a viability, T/C [28] of 8.43%, a viability, T/C [29] of 5.36% and a viability, T/C [30] of 4.56%. It also gave a viability, T/C [31] of 10.8%, a viability, T/C [32] of 10.7% and a viability, T/C [33] of 9.64%. For the same molecule, the viability, T/C [34] was 10.6%, the viability, T/C [35] was 5.65% and the viability, T/C [36] was 3.94%.
